Reference: US20110294799A1, “Organic Compounds” (NOVARTIS AG, priority 2007, published 2011)

What was measured:
[1] = biological target: T1, GABA-A alpha1 receptor (alpha 1 subunit together with a beta and a gamma subunit) (Homo sapiens, UniProt P14867+P18507); assay: GABA-A receptor modulation, voltage-sensitive dye fluorescence in transfected eukaryotic cell line (alpha1); type: cell-based; conditions: compounds at 3 μM, sub-maximal concentration of GABA (EC20); for activation at 3 µM: read-out: alpha1 % mod (percentage of increase of the fluorescent signal compared to signal without the agent)
T1 construct: expressed in transfected cells
T1 sequence (P14867 28-456): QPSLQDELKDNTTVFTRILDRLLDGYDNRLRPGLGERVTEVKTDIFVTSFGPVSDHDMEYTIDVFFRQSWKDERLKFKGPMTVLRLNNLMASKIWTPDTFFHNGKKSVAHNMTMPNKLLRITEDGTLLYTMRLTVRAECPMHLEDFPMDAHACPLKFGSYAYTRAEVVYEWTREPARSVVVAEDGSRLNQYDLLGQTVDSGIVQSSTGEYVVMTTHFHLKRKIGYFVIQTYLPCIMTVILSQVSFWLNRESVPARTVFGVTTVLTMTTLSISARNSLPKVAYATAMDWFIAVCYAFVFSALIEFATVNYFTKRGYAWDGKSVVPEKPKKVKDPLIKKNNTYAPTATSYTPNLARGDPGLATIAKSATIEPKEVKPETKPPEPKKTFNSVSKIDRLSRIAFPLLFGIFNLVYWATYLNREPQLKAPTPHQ
T1 sequence (P47870 25-512 partner limits assumed): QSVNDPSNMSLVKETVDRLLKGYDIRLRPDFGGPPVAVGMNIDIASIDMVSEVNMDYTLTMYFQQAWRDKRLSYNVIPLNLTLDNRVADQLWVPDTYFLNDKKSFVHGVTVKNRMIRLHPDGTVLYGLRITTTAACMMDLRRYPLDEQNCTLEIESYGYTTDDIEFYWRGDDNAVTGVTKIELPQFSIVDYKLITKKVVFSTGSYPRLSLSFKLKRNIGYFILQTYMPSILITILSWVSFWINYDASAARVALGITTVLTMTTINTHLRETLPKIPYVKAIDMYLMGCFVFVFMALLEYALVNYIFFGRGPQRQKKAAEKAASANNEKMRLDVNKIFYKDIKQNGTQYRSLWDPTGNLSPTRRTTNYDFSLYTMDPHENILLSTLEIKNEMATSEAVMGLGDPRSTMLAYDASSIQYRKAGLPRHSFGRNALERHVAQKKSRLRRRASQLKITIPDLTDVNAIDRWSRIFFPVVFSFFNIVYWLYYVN
T1 sequence (P18507 40-467 limits assumed): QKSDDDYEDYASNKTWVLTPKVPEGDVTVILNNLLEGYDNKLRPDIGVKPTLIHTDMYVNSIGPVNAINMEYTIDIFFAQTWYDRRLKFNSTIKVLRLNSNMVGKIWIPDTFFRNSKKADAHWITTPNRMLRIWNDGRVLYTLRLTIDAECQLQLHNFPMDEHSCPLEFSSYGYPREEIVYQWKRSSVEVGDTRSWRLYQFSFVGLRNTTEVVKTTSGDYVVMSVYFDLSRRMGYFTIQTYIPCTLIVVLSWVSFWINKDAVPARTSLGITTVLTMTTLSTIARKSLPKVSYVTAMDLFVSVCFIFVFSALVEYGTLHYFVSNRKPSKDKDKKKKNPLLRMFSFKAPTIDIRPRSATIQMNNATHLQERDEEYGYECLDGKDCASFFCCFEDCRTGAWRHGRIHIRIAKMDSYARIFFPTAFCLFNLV
Text: (§1) GABA-A receptor modulators show in functional assays a positive modulation of GABA-induced signals. This modulation can be determined in vitro, e.g., at recombinant GABA-A receptors expressed in a mammalian cell line, e.g. by measurement of GABA-A receptor induced changes of the trans-membrane voltage, when using a voltage-sensitive dye and a fluorescence detection system (Adkins, C. E., Pillai, G. V., Kerby, J., Bonnert, T. P., Haldon, C., Mckernan, R. M., Gonzalez, J. E., Oades, K., Whiting, P. J. & Simpson, P. B. [2001]. alpha4beta3delta GABA-A receptors characterized by fluorescence resonance energy transfer-derived measurements of membrane potential. J. Biol. Chem., 276, 38934-38939). In this assay, a modulator compound is pre-applied at different concentrations ranging from 0.1 nM to 10 μM to cells expressing GABA-A receptors and loaded with the voltage-sensitive dye, before, or at the same time as, a sub-maximal concentration of GABA (in the range of from 0.1 to 10 μM) is applied to the cells. The fluorescent signal is correlated with the degree of GABA-A receptor channel opening. This allows the quantification of effects induced by the modulator in a functional manner. By expression of different GABA-A receptor subunit combinations, the differential efficacy of a modulator at different GABA-A receptor variants can be tested. Other functional assays include the electrophysiological recording of Xenopus oocytes or mammalian cells expressing respective receptor variants. In addition, ion flux detectors can be used to functionally study GABA-A receptors in heterologous expression systems. The affinity of a compound to the GABA-A receptor can be measured in radioligand binding experiments using reference ligands containing a radioactive element, e.g., tritiated flumazenil, and intact cells or membrane preparations of cells expressing GABA-A receptors.
(§2) Activity and selectivity of a GABA-A receptor modulator according to the invention can, e.g., be determined in vitro as follows: A transfected eukaryotic cell line expressing the alpha1, alpha2 or alpha3 subunit of the GABA-A receptor together with a beta and a gamma subunit of the GABA-A receptor is incubated with a voltage-sensitive dye, and the effects of an agonist (typically GABA) or modulator addition are recorded in a fluorimetric plate reader. The opening of the GABA-A receptor channel and the subsequent flux of anions through it changes the trans-membrane voltage of the transfected cells, leading to a change in the fluorescent signal of the voltage-sensitive dye. In the presence of the agent of the invention, a sub-maximal concentration of GABA (e.g. an EC20 or an EC50) added to transfected cells expressing the alpha1, alpha2 or alpha3 subunit of the GABA-A receptor will elicit an at least 50%, preferably an at least 80%, ideally an at least 100%, increase, of the fluorescent signal, compared to the fluorescent signal obtained without the agent of the invention. In this assay, agents of the invention modulate the GABA-induced response at concentration from about 0.1 to about 10′000 nM.

[2] = biological target: T2, GABA-A alpha2 receptor (alpha 2 subunit together with a beta and a gamma subunit) (Homo sapiens, UniProt P18507+P47869); assay: GABA-A receptor modulation, voltage-sensitive dye fluorescence in transfected eukaryotic cell line (alpha2); type: cell-based; conditions: compounds at 3 μM, sub-maximal concentration of GABA (EC20); for activation at 3 µM: read-out: alpha2 % mod (percentage of increase of the fluorescent signal compared to signal without the agent)
T2 construct: expressed in transfected cells
T2 sequence (P47869 29-451): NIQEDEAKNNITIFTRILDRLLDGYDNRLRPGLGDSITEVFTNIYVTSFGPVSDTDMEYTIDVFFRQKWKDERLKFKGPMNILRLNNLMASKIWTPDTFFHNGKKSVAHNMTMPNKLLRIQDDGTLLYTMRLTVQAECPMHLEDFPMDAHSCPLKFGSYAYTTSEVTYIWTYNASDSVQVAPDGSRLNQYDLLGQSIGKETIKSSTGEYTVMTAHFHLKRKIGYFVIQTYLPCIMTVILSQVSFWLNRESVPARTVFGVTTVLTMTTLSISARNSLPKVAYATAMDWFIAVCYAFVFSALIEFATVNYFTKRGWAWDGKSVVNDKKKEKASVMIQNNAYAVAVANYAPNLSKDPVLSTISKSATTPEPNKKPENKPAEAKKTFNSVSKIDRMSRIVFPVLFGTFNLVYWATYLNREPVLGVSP
T2 sequence (P47870 25-512 partner limits assumed): T1 sequence (P47870 25-512 partner limits assumed)
T2 sequence (P18507 40-467 limits assumed): T1 sequence (P18507 40-467 limits assumed)
Text: as §1, §2

Row | Compound | activation at 3 µM [1] [%] | activation at 3 µM [2] [%] | alpha1 % mod (percentage of increase of the fluorescent signal compared to signal without the agent) [1] [% mod] | alpha2 % mod (percentage of increase of the fluorescent signal compared to signal without the agent) [2] [% mod]
1 | Clc1ccc(-n2nc3c(cnc4ccccc43)c2OC2CCCC2)cc1 [Example 92, 2-(4-Chloro-phenyl)-3-cyclopentyloxy-2H-pyrazolo[4,3-c]quinoline] | 27 | 57 | – | –
2 | Fc1cccc2c1ncc1c(OCc3ccc(Cl)cc3)n(-c3ccccc3)nc12 [Example 33, 3-[(4-chlorobenzyl)oxy]-6-fluoro-2-phenyl-2H-pyrazolo[4,3-c]quinoline] | 39 | 73 | – | –
3 | COc1ccc(-n2nc3c(cnc4c(F)c(F)c(F)cc43)c2SCc2ccccc2)cc1 [Example 70, 3-(benzylsulfanyl)-6,7,8-trifluoro-2-(4-methoxyphenyl)-2H-pyrazolo[4,3-c]quinoline] | 188 | 349 | – | –
4 | CC(C)(C)n1nc2c(cnc3ccccc32)c1OCc1ccccc1Br [Example 81, 3-[(2-bromobenzyl)oxy]-2-tert-butyl-2H-pyrazolo[4,3-c]quinoline] | 109 | 205 | – | –
5 | COc1ccc(-n2nc3c(cnc4ccccc43)c2OCCOc2ccccc2)cc1 [Example 13, 2-(4-methoxyphenyl)-3-(2-phenoxyethoxy)-2H-pyrazolo[4,3-c]quinoline] | -29 | 52 | – | –
6 | Clc1ccc(-n2nc3c(cnc4ccccc43)c2OCC2CCO2)cc1 (centres unmarked) [Example 98, 2-(4-Chloro-phenyl)-3-(oxetan-2-ylmethoxy)-2H-pyrazolo[4,3-c]quinoline] | 53 | 97 | – | –
7 | COc1ccc(-n2nc3c(cnc4ccccc43)c2OCCN2CCOCC2)cc1 [Example 18, 2-(4-methoxyphenyl)-3-(2-morpholin-4-ylethoxy)-2H-pyrazolo[4,3-c]quinoline] | 67 | 196 | – | –
8 | COc1ccc(-n2nc3c(cnc4ccccc43)c2OCCCN2CCN(C)C2=O)cc1 [Example 17, 1-(3-{[2-(4-methoxyphenyl)-2H-pyrazolo[4,3-c]quinolin-3-yl]oxy}propyl)-3-methylimidazolidin-2-one] | 262 | 577 | – | –
9 | Clc1ccc(-n2nc3c(cnc4ccccc43)c2OCC2CC2)cc1 [Example 90, 2-(4-Chloro-phenyl)-3-cyclopropylmethoxy-2H-pyrazolo[4,3-c]quinoline] | 60 | 164 | – | –
10 | CN1CCN(CCOc2c3cnc4ccccc4c3nn2-c2ccc(Cl)cc2)CC1 [Example 99] | – | – | 58 | 121
11 | Fc1ccccc1-n1nc2c(cnc3ccccc32)c1OCCN1CCOCC1 [Example 19, 2-(2-fluorophenyl)-3-(2-morpholin-4-ylethoxy)-2H-pyrazolo[4,3-c]quinoline] | 0 | 72 | – | –
12 | Clc1ccccc1-n1nc2c(cnc3ccccc32)c1OCc1ccccc1Br [Example 41, 3-[(2-bromobenzyl)oxy]-2-(2-chlorophenyl)-2H-pyrazolo[4,3-c]quinoline] | 289 | 386 | – | –
13 | Clc1ccccc1COc1c2cnc3ccccc3c2nn1-c1ccc2c(c1)OCO2 [Example 59, 2-(1,3-benzodioxo1-5-y1)-3-[(2-chlorobenzypoxy]-2H-pyrazolo[4,3-c]quinoline] | – | – | −17 | 66
14 | Fc1ccccc1-n1nc2c(cnc3ccccc32)c1OCCc1ccccc1Cl [Example 16, 3-[2-(2-chlorophenyl)ethoxy]-2-(2-fluorophenyl)-2H-pyrazolo[4,3-c]quinoline] | 18 | 101 | – | –
15 | Clc1ccc(-n2nc3c(cnc4ccccc43)c2OCCN2CCOCC2)cc1 [Example 93, 2-(4-Chloro-phenyl)-3-(2-morpholin-4-yl-ethoxy)-2H-pyrazolo[4,3-c]quinoline] | 17 | 81 | – | –
16 | Cc1cccc2c1ncc1c(OCc3ccc(Cl)cc3)n(-c3ccccc3)nc12 [Example 31, 3-[(4-chlorobenzyl)oxy]-6-methyl-2-phenyl-2H-pyrazolo[4,3-c]quinoline] | 51 | 81 | – | –
17 | Fc1ccc(-n2nc3c(cnc4ccccc43)c2OCc2ccccc2C(F)(F)F)cc1 [Example 50, 2-(4-fluorophenyl)-3-{[2-(trifluoromethyl)benzyl]oxy}-2H-pyrazolo[4,3-c]quinoline] | 47 | 236 | – | –
18 | Cc1ccccc1-n1nc2c(cnc3ccccc32)c1OCc1ccccc1Br [Example 36, 3-[(2-bromobenzyl)oxy]-2-(2-methylphenyl)-2H-pyrazolo[4,3-c]quinoline] | 223 | 315 | – | –
19 | Fc1ccccc1COc1c2cnc3ccccc3c2nn1-c1ccccc1 [Example 27, 3-[(2-fluorobenzyl)oxy]-2-phenyl-2H-pyrazolo[4,3-c]quinoline] | 62 | 165 | – | –
